Earlier results, collected in patent publication US20080221033A1, “Monitoring of Cardiac Natriuretic Peptides During Diagnosis, Management, and Treatment of Cardiac Diseases” (Koninklijke Philips Electronics N. V., priority 2005, published 2008).
Read-outs that look alike come from different tables or passages of the source.

What was measured:
[1] = tested on: patients hospitalized with congestive heart failure
[2] = patients hospitalized with congestive heart failure

brain natriuretic peptide [BNP]
terminal half-life in the bloodstream (in words) (in vivo): a few minutes to a few hours

nesiritide
effectiveness versus parenteral vasodilators and inotropic agents ([1]; decompensated heart failure, vs nitroprusside, nitroglycerin, dobutamine, milrinone): more effective | onset of action ([1]; human, in vivo): 15 min | tolerability versus parenteral vasodilators and inotropic agents ([1]; human, in vivo): better tolerated | pulmonary arterial pressure [1, 2]: reduces | pulmonary capillary wedge pressure [1, 2]: reduces | right atrial pressure [1, 2]: reduces | systemic vascular resistance [1, 2]: reduces | onset of therapeutic action ([1]; typical cardiac patients): about 15 minutes

B1: N-terminal pro-BNP (protein, UniProt P16860 27-102, looked up)
NT-proBNP: HPLGSPGSASDLETSGLQEQRNHLQGKLSELQVEQTSLEPLQESPRPTGVWKSREVATEGIRGHRKMVLYTLRAPR
modifications: NT-proBNP
terminal half-life in the bloodstream (in words) (bloodstream, 'believed to be'): about a month or longer
